The values that follow come from ChEMBL document CHEMBL1201862, “PubChem BioAssay data set” (2004).

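In this assay, cells in 96-well plates receive the compound at five concentrations for 48 hours. Endpoints are linearly interpolated between the surrounding concentrations. The concentration for 50% growth inhibition is given as GI50.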 Active and inactive are the calls of the source. Cut-off read from the data, not from the text of the source: active = GI50 up to about 1.1 µM and inactive = higher.

Experiment in all cases: growth of human tumour cells (NCI), 48 h
The test system of assay [1] is OVCAR-3.
The test system of assay [2] is HCT-116.
Assay [3] deals with A498.
The subject of assay [4] is PC-3.
Assay [5] deals with SW-620.
In assay [6] the test system is MOLT-4.
Assay [7] has as its system OVCAR-8.
Assay [8] deals with K562.
The test system of assay [9] is HCC 2998.
Assay [10] deals with MDA-MB-435.
Assay [11] relates to HL-60.
Assay [12] concerns U-251.
The subject of assay [13] is HCT-15.
Assay [14] relates to SF-295.
Assay [15] has as its system MCF7.
The subject of assay [16] is CCRF-CEM.
Assay [17] concerns HOP-62.
Assay [18] concerns SR.
Assay [19] concerns SN12C.
In assay [20] the test system is MDA-MB-231.

In the case of `Cc1cccc(/C=C2/C(=O)Nc3ccccc32)n1`, the GI50 is 14.2 µM (inactive) in [1]; 12.2 µM (inactive) in assay [2]; 21.3 µM (inactive) in [3]; 16.7 µM (inactive) in [4]; 19.3 µM (inactive) in [5]; 7.5 µM (inactive) in assay [6]. Besides, the GI50 is 23.3 µM (inactive) in [7]; 9.98 µM (inactive) in assay [8]; 10.6 µM (inactive) in assay [9]; 16.7 µM (inactive) in [10]; 9.95 µM (inactive) in assay [11]; 15.7 µM (inactive) in [12]. In addition, the GI50 is 13.3 µM in assay [13]; 17.9 µM (inactive) in [14]; 5.79 µM (inactive) in assay [15]; 15.4 µM (inactive) in assay [16]; 16.6 µM (inactive) in assay [17].

Take `CC12CCCC3(CC(=O)C(C)(C)C3C(=O)C1)C2` (configuration not stated): the GI50 in assay [1], in [2], in [4], in assay [18], in assay [5] and in assay [6] was > 100 µM (inactive) throughout. Also, the GI50 in assay [7], in assay [8], in [10], in [11], in assay [19] and in [12] was > 100 µM (inactive) in each case. Also, the GI50 in assay [13] is greater than 100 µM; in assay [14], > 100 µM (inactive); in assay [15], > 100 µM (inactive); in [16], > 100 µM (inactive); in assay [17], > 100 µM (inactive).

Turning to `C=C1CC[C@@H]2C13[C@@H]1[C@H](CC(=O)[C@@]23C)C1(C)C` (some centres not stated), the GI50 is 21.6 µM (inactive) in assay [1]; > 100 µM (inactive) in assay [2]; > 100 µM (inactive) in [3]; > 100 µM (inactive) in [4]; 11.7 µM (inactive) in assay [18]; 51.4 µM (inactive) in [5]. The GI50 was > 100 µM (inactive) in [6]; 35.9 µM (inactive) in assay [7]; 81.5 µM (inactive) in assay [8]; > 100 µM (inactive) in [10]; > 100 µM (inactive) in assay [11]; > 100 µM (inactive) in [19]. For the same compound, the GI50 in assay [12] is > 100 µM (inactive); in assay [13] it was greater than 100 µM; in [14], 82 µM (inactive); in [15], > 100 µM (inactive); in assay [17], 24 µM (inactive).

`Clc1nc(Nc2nc3ccccc3[nH]2)nc(Cl)c1-c1ccccc1`: the GI50 in assay [2] was 21.1 µM (inactive); in assay [3] it was 21.5 µM (inactive); in [4], 23 µM (inactive); in assay [18] it was 29.1 µM (inactive); in assay [5], 11.2 µM (inactive); in [6], 76 µM (inactive). Further, the GI50 was 27.7 µM (inactive) in assay [7]; 25.2 µM (inactive) in assay [8]; 29.3 µM (inactive) in [10]; 12.7 µM (inactive) in [20]; 36.1 µM (inactive) in assay [11]; 12.6 µM (inactive) in assay [19]. Besides, the GI50 is 15.9 µM (inactive) in [12], 14.4 µM in assay [13], 18 µM (inactive) in [14] and 19.5 µM (inactive) in assay [16].

Take `O=C(O)CCC(NC(=O)c1ccc(Oc2nc3ccccc3nc2C(=O)O)cc1)C(=O)O` (configuration not stated): the GI50 in assay [1], in assay [2], in [3], in [4], in assay [18] and in assay [5] was > 100 µM (inactive) throughout. For the same compound, the GI50 in assay [6], in assay [7], in [8], in assay [9], in assay [10] and in assay [20] was > 100 µM (inactive) throughout. Further, the GI50 was > 100 µM (inactive) in assay [11]; > 100 µM (inactive) in [12]; greater than 100 µM in assay [13]; > 100 µM (inactive) in assay [14]; > 100 µM (inactive) in assay [16]; > 100 µM (inactive) in assay [17].

For `CC(C)(C)c1ccc(/C=N/NC(=O)CSCC(=O)N/N=C/c2ccc(C(C)(C)C)cc2)cc1`, the GI50 in assay [2] is 2.03 µM (inactive); in assay [3], 1.46 µM (inactive); in [4] it was 2.8 µM (inactive); in [18], 1.7 µM (inactive); in assay [5], 2.59 µM (inactive); in [6] it was 2.12 µM (inactive). Moreover, the GI50 in [7] was 2.63 µM (inactive); in [8] it was 2.55 µM (inactive); in assay [9] it was 2.73 µM (inactive); in assay [20], 0.22 µM (active); in assay [11], 1.72 µM (inactive); in [19] it was 1.77 µM (inactive). The GI50 in assay [12] was 1.61 µM (inactive); in [13] it was 4.14 µM; in assay [15], 2.28 µM (inactive); in assay [17], 2.96 µM (inactive).

With `NC(=O)c1cccc(OCC(O)CO)c1` (configuration not stated), the GI50 in [1], in assay [2], in [3], in [4], in assay [18] and in assay [5] was > 100 µM (inactive) in each case. The GI50 in assay [6], in assay [7], in assay [8], in assay [9], in assay [20] and in assay [11] was > 100 µM (inactive) in each case. The GI50 in assay [19] is > 100 µM (inactive); in assay [12], > 100 µM (inactive); in assay [13] it was greater than 100 µM; in [14] it was > 100 µM (inactive); in assay [15], > 100 µM (inactive); in assay [16], > 100 µM (inactive). The GI50 in [17] was > 100 µM (inactive).

For the compound `CN(C)CCNc1nc2c(c(=O)n(C)c(=O)n2C)n1C`, the GI50 in assay [1], in assay [2], in assay [3], in [18], in [5] and in [6] was > 100 µM (inactive) throughout. For the same compound, the GI50 in [7], in assay [8], in assay [10], in assay [20], in assay [11] and in assay [19] was > 100 µM (inactive) each time. Further, the GI50 in assay [12] is > 100 µM (inactive); in [13], greater than 100 µM; in assay [14], > 100 µM (inactive); in assay [15] it was > 100 µM (inactive); in assay [16], > 100 µM (inactive); in [17], > 100 µM (inactive).

For `O=[N+]([O-])C=C(c1ccc(Cl)cc1)c1ccc(Cl)cc1`, the GI50 in assay [1] was > 10 µM (inactive); in [2], 17.7 µM (inactive); in assay [3], 20 µM (inactive); in assay [18], 19.5 µM (inactive); in assay [5] it was 16.2 µM (inactive); in [6] it was 17.9 µM (inactive). Also, the GI50 in [7] is 17.6 µM (inactive); in [8] it was 21.3 µM (inactive); in [9], 19 µM (inactive); in [11], 17.1 µM (inactive); in assay [19], 19.5 µM (inactive); in [12], 16.1 µM (inactive). For the same compound, the GI50 in assay [13] is 17.2 µM; in [14] it was 18.5 µM (inactive); in assay [16] it was 22 µM (inactive); in assay [17] it was 18.6 µM (inactive).

With `CN1CCN(C(=S)N(C)C(=O)c2ccco2)CC1`, the GI50 in [1], in [18], in assay [5], in assay [6], in assay [7] and in assay [8] was > 100 µM (inactive) each time. In addition, the GI50 is > 100 µM (inactive) in assay [9]; > 100 µM (inactive) in assay [10]; > 100 µM (inactive) in assay [20]; > 10 µM (inactive) in assay [11]; > 100 µM (inactive) in assay [19]; > 100 µM (inactive) in [12]. Also, the GI50 was greater than 100 µM in assay [13], > 100 µM (inactive) in assay [14], > 100 µM (inactive) in [15] and > 100 µM (inactive) in [16].

As for `C[n+]1c2ccccc2cc2c(CNC(CCCNC(=N)N)C(=O)O)cccc21` (configuration not stated), the GI50 in assay [1] is 2 µM (inactive); in assay [2], 0.301 µM (active); in [3], 3.51 µM (inactive); in assay [18], 0.184 µM (active); in assay [5], 0.378 µM (active); in [6], 0.208 µM (active). In addition, the GI50 in assay [7] was 1.8 µM (inactive); in [8] it was 0.22 µM (active); in [9], 2.24 µM (inactive); in [11], 0.149 µM (active); in assay [19] it was 0.65 µM (active); in assay [12], 1.61 µM (inactive). In addition, the GI50 in assay [13] was 0.394 µM; in [14], 3.17 µM (inactive); in assay [16] it was 0.179 µM (active); in assay [17], 2.7 µM (inactive).

As to `CCOC(=O)C=C1CCN(C(=O)c2ccccc2)CC1`, the GI50 in assay [1] was > 100 µM (inactive); in [2] it was > 100 µM (inactive); in assay [3] it was > 100 µM (inactive); in assay [18] it was 15.4 µM (inactive); in assay [5], > 100 µM (inactive); in assay [6], > 100 µM (inactive). For the same compound, the GI50 in assay [7], in assay [8], in [9], in assay [11], in [19] and in assay [12] was > 100 µM (inactive) in each case. The GI50 in assay [13] is greater than 100 µM; in [14], > 100 µM (inactive); in assay [16], > 100 µM (inactive); in assay [17] it was > 100 µM (inactive).
